One experiment relates to SH-SY5Y cells. The experiment can be described thus: SRB cytotoxicity assay. The experiment is classed as cell-based. As to conditions: Homo sapiens, 48 h, read-out: GI50 ± SD. A general note: In SRB staining, fixed cells bind dye roughly in proportion to their protein.
In another experiment the target is BChE from equine serum (Equus caballus, UniProt P81908). The experiment can be described thus: BChE inhibition, Ellman assay. The experiment is classed as biochemical. (DTNB colorimetry detects thiols as they appear.)
Sequence of BChE from equine serum (P81908 whole entry): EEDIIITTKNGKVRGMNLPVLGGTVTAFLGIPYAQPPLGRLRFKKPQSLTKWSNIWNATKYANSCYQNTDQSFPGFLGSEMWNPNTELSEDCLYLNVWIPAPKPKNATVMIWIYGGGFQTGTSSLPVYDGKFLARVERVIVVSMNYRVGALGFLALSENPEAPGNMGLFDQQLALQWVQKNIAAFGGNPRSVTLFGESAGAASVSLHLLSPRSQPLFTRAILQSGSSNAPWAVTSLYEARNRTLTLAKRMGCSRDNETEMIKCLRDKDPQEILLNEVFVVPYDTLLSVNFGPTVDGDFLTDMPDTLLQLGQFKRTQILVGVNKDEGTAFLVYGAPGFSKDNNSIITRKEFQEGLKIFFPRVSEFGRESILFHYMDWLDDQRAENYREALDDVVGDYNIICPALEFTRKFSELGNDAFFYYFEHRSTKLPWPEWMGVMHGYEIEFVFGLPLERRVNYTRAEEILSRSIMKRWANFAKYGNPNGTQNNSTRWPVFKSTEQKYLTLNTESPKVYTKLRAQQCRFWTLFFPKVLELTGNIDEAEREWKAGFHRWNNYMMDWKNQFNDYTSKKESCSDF
The target of another experiment is Human recombinant AChE (Homo sapiens, UniProt P22303). The experiment is described as follows: AChE inhibition, Ellman assay. The experiment is classed as biochemical.
Sequence of Human recombinant AChE (P22303 32-614): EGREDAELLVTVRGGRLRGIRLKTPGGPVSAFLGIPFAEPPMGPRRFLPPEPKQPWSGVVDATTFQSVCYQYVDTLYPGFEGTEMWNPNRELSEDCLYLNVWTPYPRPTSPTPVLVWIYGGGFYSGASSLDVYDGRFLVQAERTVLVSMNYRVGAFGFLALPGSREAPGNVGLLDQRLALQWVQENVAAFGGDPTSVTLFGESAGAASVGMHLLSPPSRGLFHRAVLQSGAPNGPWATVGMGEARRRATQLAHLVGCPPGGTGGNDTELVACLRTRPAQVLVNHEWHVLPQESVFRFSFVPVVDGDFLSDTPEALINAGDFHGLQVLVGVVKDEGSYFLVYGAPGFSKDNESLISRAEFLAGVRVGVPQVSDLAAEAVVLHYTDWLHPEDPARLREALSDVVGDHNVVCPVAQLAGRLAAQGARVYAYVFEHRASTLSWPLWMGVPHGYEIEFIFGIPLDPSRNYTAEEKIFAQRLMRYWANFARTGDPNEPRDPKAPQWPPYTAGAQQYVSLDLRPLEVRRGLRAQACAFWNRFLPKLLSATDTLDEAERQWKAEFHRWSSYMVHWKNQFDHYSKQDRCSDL

As usually defined, the GI50 is the concentration at which growth is held to half of that of the control. Broadly, the IC50 is the concentration needed to halve the response being measured. Take `O=C1C=C(OCCCCCCCCn2cc(CNc3ccc4ncc(-c5ccccc5)nc4c3)nn2)C(=O)c2ccccc21` [Compound 7d]: in the experiment on SH-SY5Y cells, the concentration for 50% growth inhibition (GI50) was over 100 µM. In addition, the IC50 against BChE from equine serum was 4.4 ± 0.4 µM; at Human recombinant AChE, over 100 µM. In addition, the “SI (selectivity index)” value on Human recombinant AChE (Selectivity index = BChE IC50/AChE IC50) is on record as under 0.044.

Turning to `O=C1C=C(OCCCCCCn2cc(CNc3ccc4ncc(-c5ccccc5)nc4c3)nn2)C(=O)c2ccccc21` [Compound 7c], in the experiment on SH-SY5Y cells, the GI50 was over 100 µM. Further, the IC50 at BChE from equine serum and on Human recombinant AChE was over 100 µM each time.

The values above are taken from paper PMC10500570 (ACS Omega, 2023).
